Assays:
Type in all cases: in vivo
[1] = tested on: AMARE: Amaranthus retroflexus; test: Post-emergence herbicidal efficacy at 1280 g/ha, AMARE; conditions: rated visually after about 3 weeks vs untreated controls, 100% = plants have died, 0% = like control plants
Procedure: (§1) Seeds of mono- and dicotyledonous weed plants were placed in plastic pots in sandy loam soil (doubly sown with in each case one species of mono- or dicotyledonous weed plants per pot), covered with soil and cultivated in a greenhouse under controlled growth conditions. 2 to 3 weeks after sowing, the test plants were treated at the one-leaf stage. The compounds of the invention, formulated in the form of wettable powders (WP) or as emulsion concentrates (EC), were applied to the green parts of the plants as aqueous suspension or emulsion with addition of 0.5% additive at a water application rate equivalent to 600 litres per hectare. After the test plants had been kept in the greenhouse under optimum growth conditions for about 3 weeks, the activity of the preparations was rated visually in comparison to untreated controls. For example, 100% activity=the plants have died, 0% activity=like control plants. Tables A1 to A12 below show the effects of selected compounds of the general formula (I) according to Table 1 on various harmful plants and at an application rate corresponding to 1280 g/ha, which were obtained by the trial procedure specified above.

[2] = tested on: VERPE: Veronica persica; test: Post-emergence herbicidal efficacy at 1280 g/ha, VERPE; conditions: visual rating about 3 weeks after treatment vs untreated controls
Procedure: as §1

[3] = tested on: STEME: Stellaria media; test: Post-emergence herbicidal efficacy at 1280 g/ha, STEME; conditions: visual rating about 3 weeks after treatment vs untreated controls
Procedure: as §1

[4] = tested on: ABUTH: Abutilon theophrasti; test: Post-emergence herbicidal efficacy at 1280 g/ha, ABUTH; conditions: rated visually after about 3 weeks vs untreated controls, 100% = plants have died, 0% = like control plants
Procedure: as §1

[5] = tested on: SETVI: Setaria viridis; test: Pre-emergence herbicide efficacy at 1280 g/ha, SETVI; conditions: visual scoring vs untreated controls
From the text: (§2) Seeds of mono- and dicotyledonous weed plants were placed in plastic pots in sandy loam soil (doubly sown with one species each of mono- or dicotyledonous weed plants per pot) and covered with soil. The compounds of the invention, formulated in the form of wettable powders (WP) or as emulsion concentrates (EC), were then applied to the surface of the covering soil as aqueous suspension or emulsion with addition of 0.5% additive at a water application rate of 600 litres per hectare (converted). After the treatment, the pots were placed in a greenhouse and kept under good growth conditions for the test plants. After about 3 weeks, the efficacy of the preparations was scored visually in comparison with untreated controls as percentages. For example, 100% activity=the plants have died, 0% activity=like control plants. Tables C1 to C12 below show the effects of selected compounds of the general formula (I) according to Table 1 on various harmful plants and at an application rate corresponding to 1280 g/ha, which were obtained by the trial procedure specified above.

[6] = tested on: ECHCG: Echinochloa crus-galli; test: Pre-emergence herbicide efficacy at 1280 g/ha, ECHCG; conditions: visual scoring after about 3 weeks vs untreated controls
From the text: as §2

[7] = tested on: ECHCG: Echinochloa crus-galli; test: Post-emergence herbicidal efficacy at 1280 g/ha, ECHCG; conditions: rated visually after about 3 weeks vs untreated controls, 100% = plants have died, 0% = like control plants
Procedure: as §1

[8] = tested on: DIGSA: Digitaria sanguinalis; test: Pre-emergence herbicide efficacy at 1280 g/ha, DIGSA; conditions: visual scoring after about 3 weeks vs untreated controls
From the text: as §2

[9] = tested on: SETVI: Setaria viridis; test: Post-emergence herbicidal efficacy at 1280 g/ha, SETVI; conditions: visual rating about 3 weeks after treatment vs untreated controls
Procedure: as §1

[10] = tested on: POAAN: Poa annua; test: Post-emergence herbicidal efficacy at 1280 g/ha, POAAN; conditions: visual rating about 3 weeks after treatment vs untreated controls
Procedure: as §1

[11] = tested on: AMARE: Amaranthus retroflexus; test: Pre-emergence herbicide efficacy at 1280 g/ha, AMARE; conditions: visual scoring after about 3 weeks vs untreated controls
From the text: as §2

[12] = tested on: KCHSC: Kochia scoparia; test: Post-emergence herbicidal efficacy at 1280 g/ha, KCHSC; conditions: visual rating about 3 weeks after treatment vs untreated controls
Procedure: as §1

[13] = tested on: AMARE: Amaranthus retroflexus; test: Pre-emergence herbicide efficacy at 80 g/ha, AMARE; conditions: scored visually after about 3 weeks
From the text: Seeds of monocotyledonous and dicotyledonous weed plants and crop plants were placed in plastic or organic planting pots and covered with soil. The compounds of the invention, formulated in the form of wettable powders (WP) or as emulsion concentrates (EC), were then applied to the surface of the covering soil as aqueous suspension or emulsion with addition of 0.5% additive at a water application rate equivalent to 600 l/ha. After the treatment, the pots were placed in a greenhouse and kept under good growth conditions for the test plants. After about 3 weeks, the efficacy of the preparations was scored visually in comparison with untreated controls as percentages. For example, 100% activity=the plants have died, 0% activity=like control plants. Tables D1 to D12 below show the effects of selected compounds of the general formula (I) according to Table 1 on various harmful plants and an application rate corresponding to 80 g/ha, which were obtained by the experimental procedure mentioned above.

[14] = tested on: AMARE: Amaranthus retroflexus; test: Post-emergence herbicidal efficacy at 80 g/ha, AMARE; conditions: visual rating about 3 weeks after treatment vs untreated controls
Procedure: Seeds of monocotyledonous and dicotyledonous weeds and crop plants were placed in sandy loam in plastic or organic planting pots, covered with soil and cultivated in a greenhouse under controlled growth conditions. 2 to 3 weeks after sowing, the test plants were treated at the one-leaf stage. The compounds of the invention, formulated in the form of wettable powders (WP) or as emulsion concentrates (EC), were then sprayed onto the green parts of the plants as aqueous suspension or emulsion with addition of 0.5% additive at a water application rate of 600 l/ha (converted). After the test plants had been kept in the greenhouse under optimum growth conditions for about 3 weeks, the activity of the preparations was rated visually in comparison to untreated controls. For example, 100% activity=the plants have died, 0% activity=like control plants. Tables B1 to B10 below show the effects of selected compounds of the general formula (I) according to Table 1 on various harmful plants and an application rate corresponding to 80 g/ha, which were obtained by the experimental procedure mentioned above.

[15] = tested on: POAAN: Poa annua; test: Pre-emergence herbicide efficacy at 1280 g/ha, POAAN; conditions: visual scoring after about 3 weeks vs untreated controls
From the text: as §2

[16] = tested on: ABUTH: Abutilon theophrasti; test: Pre-emergence herbicide efficacy at 1280 g/ha, ABUTH; conditions: visual scoring after about 3 weeks vs untreated controls
From the text: as §2

[17] = tested on: STEME: Stellaria media; test: Pre-emergence herbicide efficacy at 1280 g/ha, STEME; conditions: visual scoring vs untreated controls
From the text: as §2

[18] = tested on: KCHSC: Kochia scoparia; test: Pre-emergence herbicide efficacy at 1280 g/ha, KCHSC; conditions: visual scoring after about 3 weeks vs untreated controls
From the text: as §2

[19] = tested on: DIGSA: Digitaria sanguinalis; test: Post-emergence herbicidal efficacy at 1280 g/ha, DIGSA; conditions: rated visually after about 3 weeks vs untreated controls, 100% = plants have died, 0% = like control plants
Procedure: as §1

| Compound | Post-emergence efficacy at 1280 g/ha against AMARE in % [1] [%] | Post-emergence efficacy against VERPE [2] [%] | Post-emergence efficacy against STEME [3] [%] | Post-emergence efficacy at 1280 g/ha against ABUTH in % [4] [%] | Pre-emergence efficacy against SETVI in % [5] [%] | Pre-emergence efficacy against ECHCG [6] [%] | Post-emergence efficacy at 1280 g/ha against ECHCG in % [7] [%] | Pre-emergence efficacy against DIGSA [8] [%] | Post-emergence efficacy against SETVI [9] [%] | Post-emergence efficacy against POAAN [10] [%] | Pre-emergence efficacy against AMARE [11] [%] | Post-emergence efficacy against KCHSC [12] [%] | Pre-emergence efficacy against AMARE in % [13] [%] | Post-emergence efficacy against AMARE [14] [%] | Pre-emergence efficacy against POAAN [15] [%] | Pre-emergence efficacy against ABUTH [16] [%] | Pre-emergence efficacy against STEME in % [17] [%] | Pre-emergence efficacy against KCHSC [18] [%] | Post-emergence efficacy at 1280 g/ha against DIGSA in % [19] [%] |
| --- | --- | --- | --- | --- | --- | --- | --- | --- | --- | --- | --- | --- | --- | --- | --- | --- | --- | --- | --- |
| Fc1ccc(Oc2ccccc2Cc2ncc(Br)cn2)cc1 [Example 1-87] | 100 | 100 | 90 | 100 | 100 | 90 | 90 | 100 | 90 | 100 | 100 | 100 |  |  |  |  |  |  |  |
| O=S(=O)(CCC(F)(F)F)Oc1c(F)cccc1Cc1ncc(F)cn1 [Example 1-17] |  |  |  |  |  |  |  |  |  |  |  |  | 80 | 90 |  |  |  |  |  |
| Cc1nc(-c2ccccc2Cc2ncc(Cl)cn2)no1 [Example 1-159] |  |  |  |  |  |  |  |  |  |  |  |  | 90 | 80 |  |  |  |  |  |
| Fc1cc(Cl)cnc1Oc1ccccc1Cc1ccc(Cl)cn1 [Example 1-101] | 100 | 100 | 90 | 90 | 100 | 100 | 90 | 100 |  | 100 | 100 |  |  |  | 100 | 90 | 100 |  |  |
| Fc1cnc(Cc2cccc(F)c2Oc2ncc(F)cn2)nc1 [Example 1-153] |  |  |  |  |  |  |  |  |  |  |  |  | 100 | 90 |  |  |  |  |  |
| Fc1ccc(Sc2ccccc2Cc2ncc(Cl)cc2F)cc1 [Example 1-106] | 100 | 100 | 100 | 90 |  |  | 90 |  |  | 100 | 90 | 90 |  |  |  |  |  |  |  |
| FC(F)c1nc(-c2ccccc2Cc2ncc(Cl)cn2)no1 [Example 1-160] |  |  |  |  |  |  |  |  |  |  |  |  | 100 | 100 |  |  |  |  |  |
| N#CC(c1ncc(F)cn1)c1ccccc1Cc1ccc(F)cc1 (stereo not shown) [Example 1-81] | 90 | 90 |  | 90 |  |  | 90 |  |  |  |  |  |  |  | 100 |  |  |  |  |
| O=S(=O)(CCC(F)(F)F)Oc1c(Cl)cccc1Cc1ncc(F)cn1 [Example 1-21] |  |  |  |  |  |  |  |  |  |  |  |  | 90 | 90 |  |  |  |  |  |
| Cc1cccc(Cc2ncc(Cl)cn2)c1Oc1ccc(F)cc1 [Example 1-31] | 90 | 90 | 90 | 100 | 100 | 100 | 100 | 100 | 90 | 90 | 90 |  |  |  | 100 |  |  |  |  |
| FC(F)(F)CCCc1ccccc1Cc1ncc(Cl)cn1 [Example 1-1] | 100 | 100 | 100 | 90 | 90 | 90 |  | 100 |  | 90 | 100 | 90 |  |  | 90 |  |  | 90 | 90 |
| Fc1ccc(Cc2ccccc2Cc2ccc(Cl)cn2)cc1 [Example 1-96] | 100 | 100 | 90 | 100 | 90 | 90 | 90 | 100 |  | 90 | 100 | 90 |  |  |  | 100 |  |  |  |

From patent US20250221410A1, “SUBSTITUTED 2-C-AZINES AND SALTS THEREOF, AND USE THEREOF AS HERBICIDAL ACTIVE SUBSTANCES” (BAYER AKTIENGESELLSCHAFT, priority 2022, published 2025)
